Measured values as given in article PMC10943693, “Evaluation of binding mechanism of dietary phytochemical, capsaicin, with human transferrin: targeting neurodegenerative diseases therapeutics” (Frontiers in Pharmacology, 2024).

Biological target: T1, Human transferrin (htf) (Homo sapiens, UniProt P02787)
T1 construct: gene TF; commercial protein from Sigma Aldrich
Test: intrinsic fluorescence quenching (excitation […] nm), modified Stern-Volmer plot
Type: binding
Conditions: 4 µM htf, 0-6 µM capsaicin; inner filter corrected; double-log

T1 sequence (P02787 20-698): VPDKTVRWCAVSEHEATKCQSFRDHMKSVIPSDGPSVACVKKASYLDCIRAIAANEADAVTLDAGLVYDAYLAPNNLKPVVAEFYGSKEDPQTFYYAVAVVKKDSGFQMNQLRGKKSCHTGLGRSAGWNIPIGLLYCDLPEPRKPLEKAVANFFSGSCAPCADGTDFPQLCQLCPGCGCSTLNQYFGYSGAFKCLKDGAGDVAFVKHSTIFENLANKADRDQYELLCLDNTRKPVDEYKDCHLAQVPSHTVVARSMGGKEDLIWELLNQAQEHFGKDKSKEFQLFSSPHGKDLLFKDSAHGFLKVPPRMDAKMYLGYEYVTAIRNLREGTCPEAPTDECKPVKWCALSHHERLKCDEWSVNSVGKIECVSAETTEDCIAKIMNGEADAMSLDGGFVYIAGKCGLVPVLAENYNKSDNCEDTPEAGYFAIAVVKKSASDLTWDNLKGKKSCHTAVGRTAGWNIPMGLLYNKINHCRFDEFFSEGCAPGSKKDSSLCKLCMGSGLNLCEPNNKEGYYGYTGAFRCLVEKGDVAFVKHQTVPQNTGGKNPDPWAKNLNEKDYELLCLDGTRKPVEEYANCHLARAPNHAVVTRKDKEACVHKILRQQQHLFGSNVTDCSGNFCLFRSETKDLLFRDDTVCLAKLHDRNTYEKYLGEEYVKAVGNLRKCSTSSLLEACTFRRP

## COc1cc(CNC(=O)CCCC/C=C/C(C)C)ccc1O [capsaicin, 8-methyl-N-vanillyl-6-nonenamide]
  K: 3.99e+06 M⁻¹
